Test results: ChEMBL document CHEMBL1147120, “Chemical constituents of malagasy Liverworts. 6. A myltaylane caffeate with nitric oxide inhibitory activity from Bazzania nitida” (J Nat Prod, 2007)

Tested on: RAW
Test: Inhibition of LPS-induced NO production in RAW 264.7 cells
Type: functional, cell-based
Conditions: Mus musculus

IC50: 6.3 µM
Compound: C=C1C[C@]23C[C@H](OC(=O)/C=C/c4ccc(O)c(O)c4)[C@H]1[C@@]2(C)CCCC3(C)C
